Patent publication US20200093103A1, “BREEDING WATER FOR ANGUILLIFORMES AND METHOD FOR REARING ANGUILLIFORMES” (SHIN NIPPON BIOMEDICAL LABORATORIES, LTD., priority 2016, published 2020)

Tested on: Anguilla japonica leptocephali
Assay: Induction of Anguilla japonica metamorphosis by T4 treatment in 23° C. breeding water
Assay type: in vivo
Parameters: key: L: During life, no characteristics of metamorphosis seen.; Stage 1: Starting phase of metamorphosis. The rostral end is rounded, and intestinal degeneration starts.; Stage 2: Peak phase of metamorphosis. Intestinal degeneration becomes pronounced.; Stage 3: Late phase of metamorphosis.; Stage 4: Pre-glass eel stage. Almost the eel form, but the body height still remains
Description: Stage 1: Starting phase of metamorphosis. The rostral end is rounded, and intestinal degeneration starts.
Stage 2: Peak phase of metamorphosis. Intestinal degeneration becomes pronounced. In the second half, the anus reaches to near the last vertical blood vessel (VBV last).
Stage 3: Late phase of metamorphosis. The preanal length (PAL) becomes equal to or shorter than the last vertical blood vessel length (VBV last Length) (PAL VBV last Length). The body height is apparently low.
Stage 4: Pre-glass eel stage. Almost the eel form, but the body height still remains. Melanophores on the body surface or endogenous melanophores are not yet seen.
Elver stage: Juvenile stage. Food intake can be identified.
A thyroid hormone (e.g., thyroxine (T4)) is adjusted to 50 to 100 mM in a 1- to 2-mL volume messflask. As a solvent, known solvents (water, alcohol) can be used. Ethanol is preferably used as the solvent.
For example, using ethanol as a solvent, T4 adjusted to 50 mM is diluted 500-fold, 5,000-fold, and 50,000-fold, respectively, and adjusted to […], 1 μM, and 100 nM. A feed can be prepared in this manner.
Artificial seawater is added to a breeding vessel, and 1/1000 of the […] T4 is added to prepare […] T4 breeding water.
Half of the breeding water is replaced every two days with breeding water of the same concentration. In the case where the concentration is changed, for example, in the case of changing from 10 nM to 2 nM, 80% to the breeding water is removed, and unadjusted artificial seawater is newly added to make 1 L.
Leptocephali visually considered to have reached a total length of 40 mm (or may be 30 mm to 50 mm, may be 35 mm to 45 mm, or may also be 35 mm or more, 40 mm or more, or 45 mm or more) are selected, anesthetized with 2-phenoxyethanol, and then photographed, and the total length of each larva is measured using an image analyzing device.
The larvae are placed in 10 nM T4 breeding water and then placed in an incubator set at 23° C., and breeding is started. In first one week, observation is performed every two days, and half of the 10 nM T4 breeding water is replaced each time. The average amount of thyroid hormone in the breeding water in stage 1 is 1 nM to 100 nM, for example, and may also be 3 nM to 30 nM, or 5 nM to 20 nM.
For larvae visually judged to have reached the second half of stage 2, the concentration of the breeding water is changed. The breeding water is diluted 5-fold or 10-fold and adjusted to 2 nM or 1 nM T4, and breeding is continued. The average amount of thyroid hormone in the breeding water in stage 2 may be, as compared with the breeding water of stage 1, diluted 2-fold to 20-fold, diluted 3 to 15-fold, or diluted 5 to 10-fold as described above. The average amount of thyroid hormone in the breeding water in stage 2 is 0.1 nM to 20 nM, for example, and may also be 0.5 nM to 10 nM, 1 nM to 5 nM, or 1 nM to 2 nM.
For larvae visually judged to have reached stage 3, the breeding water is quickly changed 0.2 nM T4 breeding water, which is a 5-fold dilution of 1 nM T4 breeding water, and further changed to 0.1 nM T4 breeding water on the following day. […] Also, in larvae whose anus position has not reached the last vertical hemal spine, when they are judged to be on the brink of stage 3, the concentration is changed as above. The average amount of thyroid hormone in the breeding water in stage 3 may be, as compared with the breeding water of stage 2, diluted 2-fold to 50-fold, diluted 3 to 15-fold, diluted 4 to 6-fold, or diluted 5-fold as described above. The average amount of thyroid hormone in the breeding water in stage 3 is 0.01 nM to 2 nM, for example, and may also be 0.05 nM to 1 nM, 0.1 nM to 0.5 nM, or 0.1 nM to 0.2 nM. […] That is, the concentration may be changed such that the thyroid hormone becomes undetectable in the breeding water in the course of stage 3.
In stage 3, breeding is continuously performed in the 0.1 nM T4 breeding water. […]

## N[C@@H](Cc1cc(I)c(Oc2cc(I)c(O)c(I)c2)c(I)c1)C(=O)O [T4, thyroxine]
Individual Exp 5-4, 175 days old, total length 43.5 mm at start, c3 onward = treatment days 1,3,5,7,8,9,10,11,12,13,14,15,16,17,18, T4 (nM) 10,10,10,10,2,1,0.2,0.1,0.1,0.1,0.1,0.1, treatment day 1, T4 10 nM
  metamorphosis stage: L
Individual Exp 5-4, 175 days old, total length 43.5 mm at start, c3 onward = treatment days 1,3,5,7,8,9,10,11,12,13,14,15,16,17,18, T4 (nM) 10,10,10,10,2,1,0.2,0.1,0.1,0.1,0.1,0.1, treatment day 3, T4 10 nM
  metamorphosis stage: L
Individual Exp 5-4, 175 days old, total length 43.5 mm at start, c3 onward = treatment days 1,3,5,7,8,9,10,11,12,13,14,15,16,17,18, T4 (nM) 10,10,10,10,2,1,0.2,0.1,0.1,0.1,0.1,0.1, treatment day 5, T4 10 nM
  metamorphosis stage: 2
Individual Exp 5-4, 175 days old, total length 43.5 mm at start, c3 onward = treatment days 1,3,5,7,8,9,10,11,12,13,14,15,16,17,18, T4 (nM) 10,10,10,10,2,1,0.2,0.1,0.1,0.1,0.1,0.1, treatment day 7, T4 10 nM
  metamorphosis stage: 2
Individual Exp 5-4, 175 days old, total length 43.5 mm at start, c3 onward = treatment days 1,3,5,7,8,9,10,11,12,13,14,15,16,17,18, T4 (nM) 10,10,10,10,2,1,0.2,0.1,0.1,0.1,0.1,0.1, treatment day 8, T4 2 nM
  metamorphosis stage: 2
Individual Exp 5-4, 175 days old, total length 43.5 mm at start, c3 onward = treatment days 1,3,5,7,8,9,10,11,12,13,14,15,16,17,18, T4 (nM) 10,10,10,10,2,1,0.2,0.1,0.1,0.1,0.1,0.1, treatment day 9, T4 1 nM
  metamorphosis stage: 2
Individual Exp 5-4, 175 days old, total length 43.5 mm at start, c3 onward = treatment days 1,3,5,7,8,9,10,11,12,13,14,15,16,17,18, T4 (nM) 10,10,10,10,2,1,0.2,0.1,0.1,0.1,0.1,0.1, treatment day 10, T4 0.2 nM
  metamorphosis stage: 2
Individual Exp 5-4, 175 days old, total length 43.5 mm at start, c3 onward = treatment days 1,3,5,7,8,9,10,11,12,13,14,15,16,17,18, T4 (nM) 10,10,10,10,2,1,0.2,0.1,0.1,0.1,0.1,0.1, treatment day 11, T4 0.1 nM
  metamorphosis stage: 2
Individual Exp 5-4, 175 days old, total length 43.5 mm at start, c3 onward = treatment days 1,3,5,7,8,9,10,11,12,13,14,15,16,17,18, T4 (nM) 10,10,10,10,2,1,0.2,0.1,0.1,0.1,0.1,0.1, treatment day 12, T4 0.1 nM
  metamorphosis stage: 3
Individual Exp 5-4, 175 days old, total length 43.5 mm at start, c3 onward = treatment days 1,3,5,7,8,9,10,11,12,13,14,15,16,17,18, T4 (nM) 10,10,10,10,2,1,0.2,0.1,0.1,0.1,0.1,0.1, treatment day 13, T4 0.1 nM
  metamorphosis stage: 3
Individual Exp 5-4, 175 days old, total length 43.5 mm at start, c3 onward = treatment days 1,3,5,7,8,9,10,11,12,13,14,15,16,17,18, T4 (nM) 10,10,10,10,2,1,0.2,0.1,0.1,0.1,0.1,0.1, treatment day 14, T4 0.1 nM
  metamorphosis stage: 3
Individual Exp 5-4, 175 days old, total length 43.5 mm at start, c3 onward = treatment days 1,3,5,7,8,9,10,11,12,13,14,15,16,17,18, T4 (nM) 10,10,10,10,2,1,0.2,0.1,0.1,0.1,0.1,0.1, treatment day 15, T4 0.1 nM
  metamorphosis stage: 4
Individual Exp 5-5, 174 days old, total length 36.1 mm at start, c3 onward = treatment days 1,3,5,7,8,9,10,11,12,13,14,15,16,17, T4 (nM) 10,10,10,10,10,10,10,2,0.2,0.1,0.1,0.1,0.1,0.1, treatment day 1, T4 10 nM
  metamorphosis stage: L
Individual Exp 5-5, 174 days old, total length 36.1 mm at start, c3 onward = treatment days 1,3,5,7,8,9,10,11,12,13,14,15,16,17, T4 (nM) 10,10,10,10,10,10,10,2,0.2,0.1,0.1,0.1,0.1,0.1, treatment day 3, T4 10 nM
  metamorphosis stage: L
Individual Exp 5-5, 174 days old, total length 36.1 mm at start, c3 onward = treatment days 1,3,5,7,8,9,10,11,12,13,14,15,16,17, T4 (nM) 10,10,10,10,10,10,10,2,0.2,0.1,0.1,0.1,0.1,0.1, treatment day 5, T4 10 nM
  metamorphosis stage: L
Individual Exp 5-5, 174 days old, total length 36.1 mm at start, c3 onward = treatment days 1,3,5,7,8,9,10,11,12,13,14,15,16,17, T4 (nM) 10,10,10,10,10,10,10,2,0.2,0.1,0.1,0.1,0.1,0.1, treatment day 7, T4 10 nM
  metamorphosis stage: L
Individual Exp 5-5, 174 days old, total length 36.1 mm at start, c3 onward = treatment days 1,3,5,7,8,9,10,11,12,13,14,15,16,17, T4 (nM) 10,10,10,10,10,10,10,2,0.2,0.1,0.1,0.1,0.1,0.1, treatment day 8, T4 10 nM
  metamorphosis stage: 2
Individual Exp 5-5, 174 days old, total length 36.1 mm at start, c3 onward = treatment days 1,3,5,7,8,9,10,11,12,13,14,15,16,17, T4 (nM) 10,10,10,10,10,10,10,2,0.2,0.1,0.1,0.1,0.1,0.1, treatment day 9, T4 10 nM
  metamorphosis stage: 2
Individual Exp 5-5, 174 days old, total length 36.1 mm at start, c3 onward = treatment days 1,3,5,7,8,9,10,11,12,13,14,15,16,17, T4 (nM) 10,10,10,10,10,10,10,2,0.2,0.1,0.1,0.1,0.1,0.1, treatment day 10, T4 10 nM
  metamorphosis stage: 2
Individual Exp 5-5, 174 days old, total length 36.1 mm at start, c3 onward = treatment days 1,3,5,7,8,9,10,11,12,13,14,15,16,17, T4 (nM) 10,10,10,10,10,10,10,2,0.2,0.1,0.1,0.1,0.1,0.1, treatment day 11, T4 2 nM
  metamorphosis stage: 3
Individual Exp 5-5, 174 days old, total length 36.1 mm at start, c3 onward = treatment days 1,3,5,7,8,9,10,11,12,13,14,15,16,17, T4 (nM) 10,10,10,10,10,10,10,2,0.2,0.1,0.1,0.1,0.1,0.1, treatment day 12, T4 0.2 nM
  metamorphosis stage: 3
Individual Exp 5-5, 174 days old, total length 36.1 mm at start, c3 onward = treatment days 1,3,5,7,8,9,10,11,12,13,14,15,16,17, T4 (nM) 10,10,10,10,10,10,10,2,0.2,0.1,0.1,0.1,0.1,0.1, treatment day 13, T4 0.1 nM
  metamorphosis stage: 3
Individual Exp 5-5, 174 days old, total length 36.1 mm at start, c3 onward = treatment days 1,3,5,7,8,9,10,11,12,13,14,15,16,17, T4 (nM) 10,10,10,10,10,10,10,2,0.2,0.1,0.1,0.1,0.1,0.1, treatment day 14, T4 0.1 nM
  metamorphosis stage: 3
Individual Exp 5-5, 174 days old, total length 36.1 mm at start, c3 onward = treatment days 1,3,5,7,8,9,10,11,12,13,14,15,16,17, T4 (nM) 10,10,10,10,10,10,10,2,0.2,0.1,0.1,0.1,0.1,0.1, treatment day 15, T4 0.1 nM
  metamorphosis stage: 3
